# According to ChEMBL document CHEMBL1143809, “New bis-N9-(methylphenylmethyl)purine derivatives: synthesis and antitumor activity” (2007):
# Experiments:
# Type in all cases: functional
# M14 = experiment: Growth inhibition of human M14 cells after 48 hrs by SRB protein assay; settings: M14, 48 h
# SK-MEL-2 = experiment: Growth inhibition of human SK-MEL-2 cells after 48 hrs by SRB protein assay; settings: SK-MEL-2, 48 h
# SK-MEL-28 = experiment: Growth inhibition of human SK-MEL-28 cells after 48 hrs by SRB protein assay; settings: SK-MEL-28, 48 h
# UACC-257 = experiment: Growth inhibition of human UACC257 cells after 48 hrs by SRB protein assay; settings: UACC-257, 48 h
# IGROV-1 = experiment: Growth inhibition of human IGROV1 cells after 48 hrs by SRB protein assay; settings: IGROV-1, 48 h
# OVCAR-4 = experiment: Growth inhibition of human OVCAR4 cells after 48 hrs by SRB protein assay; settings: OVCAR-4, 48 h
# MCF7 = experiment: Anticancer activity against human MCF7 cells assessed as growth at 100 uM after 48 hrs by SRB protein assay relative to control; settings: MCF7, 48 h, read-out: Activity
# SF-268 [1] = experiment: Anticancer activity against human SF268 cells assessed as growth at 100 uM after 48 hrs by SRB protein assay relative to control; settings: SF-268, 48 h, read-out: Activity
# CCRF-CEM = experiment: Growth inhibition of human CCRF-CEM cells after 48 hrs by SRB protein assay
# K562 = experiment: Growth inhibition of human K562 cells after 48 hrs by SRB protein assay; settings: K562, 48 h
# EKVX = experiment: Growth inhibition of human EKVX cells after 48 hrs by SRB protein assay
# [2] = Growth inhibition of human NCL-H226 cells after 48 hrs by SRB protein assay; settings: NCL-H226, 48 h
# [3] = Growth inhibition of human NCL-H322M cells after 48 hrs by SRB protein assay
# NCI-H460 = experiment: Growth inhibition of human NCL-H460 cells after 48 hrs by SRB protein assay; settings: NCI-H460, 48 h
# [4] = Growth inhibition of human NCL-H522 cells after 48 hrs by SRB protein assay; settings: NCL-H522, 48 h
# COLO 205 = experiment: Growth inhibition of human COLO205 cells after 48 hrs by SRB protein assay; settings: COLO 205, 48 h
# HCC 2998 = experiment: Growth inhibition of human HCC2998 cells after 48 hrs by SRB protein assay; settings: HCC 2998, 48 h
# HT-29 = experiment: Growth inhibition of human HT29 cells after 48 hrs by SRB protein assay; settings: HT-29, 48 h
# KM12 = experiment: Growth inhibition of human KM12 cells after 48 hrs by SRB protein assay; settings: KM12, 48 h
# SW-620 = experiment: Growth inhibition of human SW620 cells after 48 hrs by SRB protein assay; settings: SW-620, 48 h
# SF-268 [5] = experiment: Growth inhibition of human SF268 cells after 48 hrs by SRB protein assay; settings: SF-268, 48 h
# SNB-19 = experiment: Growth inhibition of human SNB19 cells after 48 hrs by SRB protein assay; settings: SNB-19, 48 h
# SNB-75 = experiment: Growth inhibition of human SNB75 cells after 48 hrs by SRB protein assay; settings: SNB-75, 48 h
# U-251 = experiment: Growth inhibition of human U251 cells after 48 hrs by SRB protein assay; settings: U-251, 48 h
# [6] = Growth inhibition of human LOX MIVI cells after 48 hrs by SRB protein assay
# 786-0 = experiment: Growth inhibition of human 786-0 cells after 48 hrs by SRB protein assay; settings: 786-0, 48 h
# ACHN = experiment: Growth inhibition of human ACHN cells after 48 hrs by SRB protein assay
# UO-31 = experiment: Growth inhibition of human UO31 cells after 48 hrs by SRB protein assay; settings: UO-31, 48 h
# PC-3 = experiment: Growth inhibition of human PC3 cells after 48 hrs by SRB protein assay; settings: PC-3, 48 h
# NCI/ADR-RES = experiment: Growth inhibition of human NCI/ADR-RES cells after 48 hrs by SRB protein assay
# HOP-92 = experiment: Growth inhibition of human HOP92 cells after 48 hrs by SRB protein assay; settings: HOP-92, 48 h
# HCT-116 = experiment: Growth inhibition of human HCT116 cells after 48 hrs by SRB protein assay; settings: HCT-116, 48 h
# MDA-MB-231 = experiment: Growth inhibition of human MDA-MB-231 cells after 48 hrs by SRB protein assay; settings: MDA-MB-231, 48 h
# [7] = read-out: LC50 (the source's name)
structure (smiles),measurement,setting,value
Clc1nc(Cl)c2ncn(Cc3cccc(Cn4cnc5c(Cl)nc(Cl)nc54)c3)c2n1,GI50,M14,2.75 µM
same,LC50,M14,33.9 µM
same,TGI,M14,7.58 µM
same,GI50,SK-MEL-2,2.81 µM
same,TGI,SK-MEL-2,7.76 µM
same,CC50,SK-MEL-2; [7],35.5 µM
same,GI50,SK-MEL-28,4.26 µM
same,LC50,SK-MEL-28,> 100 µM
same,TGI,SK-MEL-28,22.4 µM
same,GI50,UACC-257,4.78 µM
same,TGI,UACC-257,17.4 µM
same,CC50,UACC-257; [7],56.2 µM
same,GI50,IGROV-1,7.41 µM
same,LC50 (50% lethal concentration),IGROV-1,47.9 µM
same,TGI,IGROV-1,20.4 µM
same,GI50,OVCAR-4,15.1 µM
same,LC50,OVCAR-4,55 µM
same,TGI,OVCAR-4,28.8 µM
same,growth at 100 µM,MCF7,0%
same,growth at 100 µM,SF-268 [1],0%
same,GI50,CCRF-CEM,2.23 µM
same,TGI,CCRF-CEM,5.37 µM
same,CC50,CCRF-CEM; [7],> 100 µM
same,GI50,K562,3.09 µM
same,TGI,K562,17 µM
same,CC50,K562; [7],> 100 µM
same,GI50,EKVX,3.09 µM
same,LC50,EKVX,41.7 µM
same,TGI,EKVX,11 µM
same,GI50,[2],4.78 µM
same,LC50,[2],> 100 µM
same,TGI,[2],26.9 µM
same,GI50,[3],14.1 µM
same,TGI,[3],27.5 µM
same,CC50,[3]; [7],52.5 µM
same,GI50,NCI-H460,3.71 µM
same,TGI,NCI-H460,13.5 µM
same,CC50,NCI-H460; [7],58.9 µM
same,GI50,[4],2.88 µM
same,LC50,[4],41.7 µM
same,TGI,[4],7.07 µM
same,GI50,COLO 205,3.38 µM
same,LC50,COLO 205,> 100 µM
same,TGI,COLO 205,> 11.2 µM
same,GI50,HCC 2998,2.39 µM
same,LC50,HCC 2998,25.7 µM
same,TGI,HCC 2998,7.07 µM
same,GI50,HT-29,4.46 µM
same,LC50,HT-29,> 100 µM
same,TGI,HT-29,> 100 µM
same,GI50,KM12,2.88 µM
same,LC50 (concentration killing 50% of cells),KM12,33.1 µM
same,TGI,KM12,8.91 µM
same,GI50,SW-620,1.82 µM
same,TGI,SW-620,3.31 µM
same,CC50,SW-620; [7],6.16 µM
same,GI50,SF-268 [5],12.9 µM
same,LC50,SF-268 [5],75.9 µM
same,TGI,SF-268 [5],31.6 µM
same,GI50,SNB-19,3.02 µM
same,TGI,SNB-19,13.8 µM
same,CC50,SNB-19; [7],60.2 µM
same,GI50,SNB-75,2.23 µM
same,TGI,SNB-75,5.62 µM
same,CC50,SNB-75; [7],93.3 µM
same,GI50,U-251,3.89 µM
same,TGI,U-251,13.8 µM
same,CC50,U-251; [7],38.9 µM
same,GI50,[6],2.23 µM
same,LC50,[6],21.9 µM
same,TGI,[6],5.62 µM
same,GI50,786-0,12.3 µM
same,TGI,786-0,26.3 µM
same,CC50,786-0; [7],57.5 µM
same,GI50,ACHN,2.51 µM
same,LC50,ACHN,21.4 µM
same,TGI,ACHN,6.16 µM
same,GI50,UO-31,1.9 µM
same,LC50,UO-31,6.6 µM
same,TGI,UO-31,3.54 µM
same,GI50,PC-3,3.98 µM
same,TGI,PC-3,13.5 µM
same,CC50,PC-3; [7],40.7 µM
same,GI50,NCI/ADR-RES,12.6 µM
same,LC50,NCI/ADR-RES,97.7 µM
same,TGI,NCI/ADR-RES,34.7 µM
same,GI50,HOP-92,6.16 µM
same,LC50,HOP-92,70.8 µM
same,TGI,HOP-92,22.4 µM
same,GI50,HCT-116,5.75 µM
same,TGI,HCT-116,22.4 µM
same,CC50,HCT-116; [7],9.33 µM
same,GI50,MDA-MB-231,2.63 µM
same,LC50 (50% lethal concentration),MDA-MB-231,30.2 µM
same,TGI,MDA-MB-231,7.07 µM
